“Also recorded” adds a separate entry of the source.

The test system of experiment [1] is TNF-α secretion in RAW264.7 cells induced by LPS. Nature of the experiment: TNF-α content in supernatant of LPS-induced RAW264.7 cells (ELISA). It is filed as cell-based, mouse. How it is done:
Tumor necrosis factor-α (TNF-α) is a pleiotropic proinflammatory cytokine, known for its proinflammatory activity. To explore the inhibitory effects of five compounds on TNF-α, ELISA was used to determine the content of inflammatory factor TNF-α in the supernatant of RAW264.7 cells stimulated by LPS. RAW264.7 cells secreted a large amount of inflammatory-factor TNF-α 24 h after LPS (1 ug/mL) induction.
RAW264.7 mouse macrophages were purchased from Zhongqiao Xinzhou and cultured in DMEM supplemented with 10% fetal bovine serum (FBS) and 1% penicillin/streptomycin in a 37 °C, 5% CO2 incubator. The cells were passaged every two days to maintain the monolayer cell state.
The RAW264.7 cells in the logarithmic growth phase were seeded in a 24-well plate and placed in a 37 °C, 5% CO2 constant temperature incubator for culture. After 24 h, the culture medium was discarded. The blank group was added with 10% FBS DMEM 1 mL. The group was added with a medium containing 1 ug/mL LPS, and the experimental group was added with LPS and different concentrations of the target compound to make the final volume 1 mL. After 24 h of culture, the cell supernatant was taken and stored in a refrigerator at −20 °C for later use. The Griess kit was used to determine the concentration of NO in the supernatant, and a double antibody sandwich ELISA kit was used to detect TNF-α and IL-1β.

The subject of experiment [2] is xylene-induced ear edema in mice. Nature of the experiment: Xylene-induced ear edema in mice. The following applies: for Degree of Edema: 30 μL xylene, 30 min, mean ± SD, n = 6; for Inhibition of ear swelling: xylene-induced ear edema. It is filed as in vivo, Kunming mice. How it is done: To evaluate the differences in anti-inflammatory effects of the five compounds, the in vivo anti-inflammatory experiment was conducted based on the acute inflammation model of ear swelling induced by xylene. Under the inflammatory effect of 30 μL of xylene, the degree of ear swelling in the blank group and each experimental group was different. […] With an increase in dose the degree of ear swelling decreased, and the effect of ear swelling inhibition was more significant at high dose (100 mg/kg). Under the action of drugs, the five target compounds (1–5) have significant inhibitory effects on ear swelling (Figure 6).
Adult male Kunming mice (18–20 g) were bought from Liaoning Changsheng Biotechnology Co., Ltd. (Shenyang, China, License No. SCXK (Liao) 2015-0001). The breeding is carried out under standard conditions without pathogens (constant room temperature 20–22 °C, 55 ± 5% humidity, 12 h light–dark cycle and free access to food and water). The research protocol has been approved by the Animal Experiment Ethics Committee of the School of Pharmacy of Jilin University (20190048). All experimental operations follow the principles of laboratory animal care, and all animal experiments are conducted in accordance with the Guide for the Care and Use of Laboratory Animals (released by the National Research Council).
In this experiment, Kunming mice were randomly divided into two groups. One group was given 5% sodium carboxymethyl cellulose solution as the blank group, and the other group was given different concentrations of the target compound as the experimental group (high, medium and low doses); continuous intragastric administration was two days and the volume of intragastric administration was 0.2 mL. One hour after the last administration, 30 μL of xylene was evenly smeared on both sides of the mouse’s right ear. After 30 min, the mouse’s right ear was obviously red and swollen and the capillary congestion was severe. Cervical vertebrae were dislocated and sacrificed. The ears on both sides were quickly cut off, an 8 mm ear punch was used to punch holes at the same position on the ears on both sides and they were immediately weighed to calculate the weight difference.
The formula for the difference in ear weight is as follows:(2) D=Wr−Wl where Wr was the weight of the right ear and Wl was the weight of the left ear.
The formula for the inhibition rate of ear swelling is as follows:(3) Inhibition %=Dc−Dt/Dc×100% where Dc was the extent of ear edema of the control group and Dt was the extent of ear edema of the treatment group.

The mark [3] stands for this setting: 80 μM, LPS 1 ug/mL, 24 h, RAW264.7, vs model group.
Setting [4] is: LPS-stimulated RAW264.7, concentration not stated.
Setting [5] is: 25 mg/kg intragastric for two days.
Where [6] appears, read: 50 mg/kg intragastric for two days.
[7] abbreviates: 100 mg/kg (high dose) intragastric.
The mark [8] stands for this setting: 100 mg/kg intragastric for two days.

`CN1CC(=O)N(C(=O)/C=C/c2ccco2)C1=O` [Compound 2, (E)-3-(3-(furan-2-yl)acryloyl)-1-methylimidazolidine-2,4-dione]: the “inhibition of TNF-α secretion” value in experiment [1] (20 μM, LPS 1 ug/mL, 24 h, RAW264.7, vs model group) is “no obvious inhibitory effect on TNF-α”; in experiment [1] (setting [3]), “significantly reduce the secretion of TNF-α”; in experiment [1] (setting [4]) it was “reduce the secretion of TNF-α”. In addition, the figures for the “Degree of Edema” value in experiment [2] (setting [5]), in experiment [2] (setting [6]) and in experiment [2] (setting [8]) were 8.68 ± 0.79 mg, 7.96 ± 0.23 mg and 6.19 ± 1.13 mg, respectively. Also, the “Inhibition of ear swelling” value in experiment [2] (25 mg/kg intragastric) turned out to be 29.14%; in experiment [2] (50 mg/kg intragastric) it was 35.02%; in experiment [2] (setting [7]), 49.47%.
For `CC(=O)Oc1ccc(/C=C/C(=O)N2C(=O)CN(C)C2=O)cc1` [Compound 4, (E)-4-(3-(3-methyl-2,5-dioxoimidazolidin-1-yl)-3-oxoprop-1-en-1-yl)phenyl acetate], the “inhibition of TNF-α secretion” value in experiment [1] (setting [3]) was “significantly reduce the secretion of TNF-α; also recorded: most significant”; in experiment [1] (setting [4]) it was “reduce the secretion of TNF-α; also recorded: significantly inhibited the secretion of inflammatory factors TNF-α”. The “Degree of Edema” value stood at 11.03 ± 0.32 mg in experiment [2] (setting [5]), 8.79 ± 0.76 mg in experiment [2] (setting [6]) and 7.33 ± 0.51 mg in experiment [2] (setting [8]). Moreover, the “Inhibition of ear swelling” value in experiment [2] (25 mg/kg intragastric) amounted to 9.96%; in experiment [2] (50 mg/kg intragastric), 28.24%; in experiment [2] (setting [7]), 40.16%.

Source of the values: publication PMC9737772, “Synthesis and Anti-Inflammatory Activity of 1-Methylhydantoin Cinnamoyl Imides” (Molecules, 2022).
